The record followed here is patent US20110160167A1, “Steroid Derivatives Acting As Glucocorticosteroid Receptor Agonists” (AstraZeneca AB, priority 2007, published 2011).

Structures are written as SMILES.

The target in the assay is T1, recombinant human GR (Homo sapiens, UniProt P04150).
T1 construct: purchased Panvera/Invitrogen P2812 (kit P2893)
T1 sequence (P04150 1-777): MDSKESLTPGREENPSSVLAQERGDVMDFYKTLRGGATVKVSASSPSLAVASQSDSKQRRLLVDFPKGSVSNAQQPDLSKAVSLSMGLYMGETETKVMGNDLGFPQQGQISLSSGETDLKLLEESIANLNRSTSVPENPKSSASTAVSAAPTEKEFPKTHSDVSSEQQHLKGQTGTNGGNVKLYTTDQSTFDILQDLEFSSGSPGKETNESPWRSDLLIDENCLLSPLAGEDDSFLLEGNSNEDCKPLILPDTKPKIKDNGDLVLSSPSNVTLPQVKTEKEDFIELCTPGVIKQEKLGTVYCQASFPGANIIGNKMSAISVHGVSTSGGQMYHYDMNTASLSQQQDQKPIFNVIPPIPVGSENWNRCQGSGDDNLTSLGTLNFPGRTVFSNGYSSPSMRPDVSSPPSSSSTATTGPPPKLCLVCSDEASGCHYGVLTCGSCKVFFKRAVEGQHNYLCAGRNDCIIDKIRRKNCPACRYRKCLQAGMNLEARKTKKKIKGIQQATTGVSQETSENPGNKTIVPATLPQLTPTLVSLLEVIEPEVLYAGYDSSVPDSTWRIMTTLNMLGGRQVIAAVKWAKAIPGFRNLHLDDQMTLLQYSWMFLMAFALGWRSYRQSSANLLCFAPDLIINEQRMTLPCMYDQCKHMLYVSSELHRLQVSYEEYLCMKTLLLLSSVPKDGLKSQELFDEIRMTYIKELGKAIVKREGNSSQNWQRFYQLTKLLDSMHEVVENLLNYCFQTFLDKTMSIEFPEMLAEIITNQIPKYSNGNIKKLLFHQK
As to the kind of experiment: Human Glucocorticoid Receptor (GR) Assay (fluorescence polarization, Panvera/Invitrogen kit). The note with it: GS Red tracer, 2 hours at room temperature, 100% control 10 μM Dexamethasone, read-out: Inhibition of GR binding, IC50. The protocol: Human Glucocorticoid Receptor (GR) Assay The assay is based on a commercial kit from Panvera/Invitrogen (Part number P2893). The assay technology is fluorescence polarization. The kit utilises recombinant human GR (Panvera, Part number P2812), a Fluoromone™ labelled tracer (GS Red, Panvera, Part number P2894) and a Stabilizing Peptide 10× (Panvera, Part number P2815). The GR and Stabilizing Peptide reagents are stored at −70° C. while the GS Red is stored at −20° C. Also included in the kit are 1M DTT (Panvera, Part number P2325, stored at −20° C.) and GR Screening buffer 10× (Panvera, Part number P2814, stored at −70° C. initially but once thawed stored at room temperature). Avoid repeated freeze/thaws for all reagents. The GR Screening buffer 10× comprises 100 mM potassium phosphate, 200 mM sodium molybdate, 1 mM EDTA and 20% DMSO. Test compounds (1 μL) and controls (1 μL) in 100% DMSO were added to black polystyrene 384-well plates (Greiner low volume black flat-bottom, part number 784076). 0% control was 100% DMSO and 100% control was 10 μM Dexamethasone. Background solution (8 μL; assay buffer 10×, Stabilizing Peptide, DTT and ice cold MQ water) was added to the background wells. GS Red solution (7 μL; assay buffer 10×, Stabilizing Peptide, DTT, GS Red and ice cold water) was added to all wells except background wells. GR solution (7 μL; assay buffer 10×, Stabilizing Peptide, DTT, GR and ice cold water) was added to all wells. The plate was sealed and incubated in a dark at room temperature for 2 hours. The plate was read in an Analyst plate reader (LJL Biosystems/Molecular Devices Corporation) or other similar plate reader capable of recording fluorescence polarization (excitation wavelength 530 nm, emission wavelength 590 nm and a dichroic mirror at 561 nm).
As to `CCC[C@@H]1O[C@@H]2C[C@H]3[C@@H]4CCC5=Cc6c(cnn6-c6ccc(F)c(CN7CCC(CO)CC7)c6)C[C@]5(C)[C@H]4[C@@H](O)C[C@]3(C)[C@]2(C(=O)CO)O1` [Example 13, 1-[(4aR,4bS,5S,6aS,6bS, 8R,9aR,10aS,10bS)-1-(4-fluoro-3-{[4-(hydroxymethyl)piperidin-1-yl]methyl}phenyl)-5-hydroxy-4a,6a-dimethyl-8-propyl-4,4a,4b,5,6,6a,9a,10, 10a,10b,11,12-dodecahydro[1,3]dioxolo [3′,4′]cyclopenta [1′,2′:5,6]naphtho[1,2-f]indazol-6b(1H)-yl]-2-hydroxyethanone trifluoroacetic acid], the IC50 was 32 nM.
For the molecule `CCC[C@H]1O[C@@H]2C[C@H]3[C@@H]4CCC5=Cc6c(cnn6-c6ccc(F)c(CN7CCC(CO)CC7)c6)C[C@]5(C)[C@H]4[C@@H](O)C[C@]3(C)[C@]2(C(=O)CO)O1` [Example 14, 1-[(4aR,4bS,5S,6aS,6bS, 8S,9aR,10aS,10bS)-1-(4-fluoro-3-{[4-(hydroxymethyl)-piperidin-1-yl]methyl}phenyl)-5-hydroxy-4a,6a-dimethyl-8-propyl-4,4a,4b,5,6,6a,9a,10, 10a,10b,11,12-dodecahydro[1,3]dioxolo [3′,4′]cyclopenta [1′,2′:5,6]naphtho[1,2-f]indazol-6b(1H)-yl]-2-hydroxyethanone trifluoroacetic acid], the IC50 was found to be 47 nM.
Under `CCC[C@@H]1O[C@@H]2C[C@H]3[C@@H]4CCC5=Cc6c(cnn6-c6ccc(F)c(CNCCO)c6)C[C@]5(C)[C@H]4[C@@H](O)C[C@]3(C)[C@]2(C(=O)CO)O1` [Example 15, 1-[(4aR,4bS,5S,6aS,6bS, 8R,9aR,10aS,10bS)-1-(4-fluoro-3-{[(2-hydroxyethyl)amino]-methyl}phenyl)-5-hydroxy-4a,6a-dimethyl-8-propyl-4,4a, 4b,5,6,6a,9a,10,- 10a,10b,11,12-dodecahydro [1,3]dioxolo-[3′,4′]cyclopenta[1′,2′:5,6]naphtho[1,2-f]indazol-6b(1H)-yl]-2-hydroxyethanone trifluoroacetic acid] stands 42 nM; under `CCC[C@@H]1O[C@@H]2C[C@H]3[C@@H]4CCC5=Cc6c(cnn6-c6ccc(F)c(CO)c6)C[C@]5(C)[C@H]4[C@@H](O)C[C@]3(C)[C@]2(C(=O)CO)O1` [Example 16, 1-[(4aR,4bS,5S,6aS,6bS,8R,9aR,10aS,10bS)-1-[4-Fluoro-3-(hydroxymethyl)phenyl]-5-hydroxy-4a,6a-dimethyl-8-propyl-4,4a,4b,5,6,6a,9a,10,10a,10b,11,12-dodecahydro[1,3]dioxolo[3′,4′]cyclopenta[1′,2′:5,6]naphtho[1,2-f]indazol-6b(1H)-yl]-2-hydroxyethanone], 3.1 nM; under `CCC[C@H]1O[C@@H]2C[C@H]3[C@@H]4CCC5=Cc6c(cnn6-c6ccc(F)c(CO)c6)C[C@]5(C)[C@H]4[C@@H](O)C[C@]3(C)[C@]2(C(=O)CO)O1` [Example 17, 1-[(4aR,4bS,5S,6aS,6bS,8S,9aR,10aS,10bS)-1-[4-Fluoro-3-(hydroxymethyl)phenyl]-5-hydroxy-4a,6a-dimethyl-8-propyl-4,4a,4b,5,6,6a,9a,10,10a,10b,11,12-dodecahydro[1,3]dioxolo[3′,4′]cyclopenta[1′,2′:5,6]naphtho[1,2-f]indazol-6b(1H)-yl]-2-hydroxyethanone], 6.6 nM.
Under `CCC[C@@H]1O[C@@H]2C[C@H]3[C@@H]4CCC5=Cc6c(cnn6-c6ccc(F)cc6)C[C@]5(C)[C@H]4[C@@H](O)C[C@]3(C)[C@]2(C(=O)CO)O1` [Example 18, 1-[(4aR,4bS,5S,6aS,6bS,8R,9aR,10aS,10bS)-1-(4-Fluorophenyl)-5-hydroxy-4a,6a-dimethyl-8-propyl-4,4a,4b,5,6,6a,9a,10,10a,10b,11,12-dodecahydro[1,3]dioxolo[3′,4′]-cyclopenta[1′,2′:5,6]naphtho[1,2-f]indazol-6b(1H)-yl]-2-hydroxyethanone] stands 2.3 nM; under `CCC[C@H]1O[C@@H]2C[C@H]3[C@@H]4CCC5=Cc6c(cnn6-c6ccc(F)cc6)C[C@]5(C)[C@H]4[C@@H](O)C[C@]3(C)[C@]2(C(=O)CO)O1` [Example 19, 1-[(4aR,4bS,5S,6aS,6bS,8S,9aR,10aS,10bS)-1-(4-Fluorophenyl)-5-hydroxy-4a,6a-dimethyl-8-propyl-4,4a,4b,5,6,6a,9a,10,10a,10b,11,12-dodecahydro[1,3]dioxolo-[3′,4′]cyclopenta[1′,2′:5,6]naphtho[1,2-f]indazol-6b(1H)-yl]-2-hydroxyethanone], 2.7 nM.
In the case of `CC1(C)O[C@@H]2C[C@H]3[C@@H]4CCC5=Cc6c(cnn6-c6ccc(F)cc6)C[C@]5(C)[C@H]4[C@@H](O)C[C@]3(C)[C@]2(C(=O)CO)O1` [Example 20, 1-[(4aR,4bS,5S,6aS,6bS,9aR,10aS,10bS)-1-(4-Fluorophenyl)-5-hydroxy-4a,6a,8,8-tetramethyl-4,4a,4b,5,6,6a,9a,10,10a,10b,11,12-dodecahydro[1,3]dioxolo-[3′,4′]cyclopenta[1′,2′:5,6]naphtho[1,2-f]indazol-6b(1H)-yl]-2-hydroxyethanone], the IC50 turned out to be 1.3 nM.
Under `CC1(C)O[C@@H]2C[C@H]3[C@@H]4CCC5=Cc6c(cnn6-c6ccc(F)c(CO)c6)C[C@]5(C)[C@H]4[C@@H](O)C[C@]3(C)[C@]2(C(=O)CO)O1` [Example 21, 1-[(4aR,4bS,5S,6aS,6bS,9aR,10aS,10bS)-1-[4-Fluoro-3-(hydroxymethyl)phenyl]-5-hydroxy-4a,6a,8,8-tetramethyl-4,4a,4b,5,6,6a,9a,10,10a,10b,11,12-dodecahydro[1,3]dioxolo[3′,4′]cyclopenta[1′,2′:5,6]naphtho[1,2-f]indazol-6b(1H)-yl]-2-hydroxyethanone] stands 5.5 nM.
As for `CCC[C@@H]1O[C@@H]2C[C@H]3[C@@H]4CCC5=Cc6c(cnn6-c6ccc(F)c(C(=O)OC)c6)C[C@]5(C)[C@H]4[C@@H](O)C[C@]3(C)[C@]2(C(=O)CO)O1` [Example 22, Methyl 2-fluoro-5-[(4aR,4bS,5S,6aS,6bS,8R,9aR,10aS,10bS)-6b-glycoloyl-5-hydroxy-4a,6a-dimethyl-8-propyl-4a,4b,5,6,6a,6b,9a,10,10a,10b,11,12-dodecahydro[1,3]dioxolo[3′,4′]cyclopenta[1′,2′:5,6]naphtho[1,2-f]indazol-1(4H)-yl]benzoate], the figure is 5.9 nM; as for `CCC[C@H]1O[C@@H]2C[C@H]3[C@@H]4CCC5=Cc6c(cnn6-c6ccc(F)c(C(=O)OC)c6)C[C@]5(C)[C@H]4[C@@H](O)C[C@]3(C)[C@]2(C(=O)CO)O1` [Example 23, Methyl 2-fluoro-5-[(4aR,4bS,5S,6aS,6bS,8S,9aR,10aS,10bS)-6b-glycoloyl-5-hydroxy-4a,6a-dimethyl-8-propyl-4a,4b,5,6,6a,6b,9a,10,10a,10b,11,12-dodecahydro[1,3]dioxolo[3′,4′]cyclopenta[1′,2′:5,6]naphtho[1,2-f]indazol-1(4H)-yl]benzoate], 5.9 nM.
`CC1(C)O[C@@H]2C[C@H]3[C@@H]4C=CC5=Cc6c(cnn6-c6ccc(F)cc6)C[C@]5(C)[C@H]4[C@@H](O)C[C@]3(C)[C@]2(C(=O)CO)O1` [Example 24, 1-[(4aR,4bS,5S,6aS,6bS,9aR,10aS,10bS)-1-(4-Fluorophenyl)-5-hydroxy-4a,6a,8,8-tetramethyl-4,4a,4b,5,6,6a,9a,10,10a,10b-decahydro[1,3]dioxolo[3′,4′]cyclopenta-[1′,2′:5,6]naphtho[1,2-f]indazol-6b(1H)-yl]-2-hydroxyethanone]: the IC50 was found to be 3.8 nM.

In general, IC50 refers to the point on the concentration scale where inhibition reaches its midpoint.
